From publication PMC8197275, “Novel Tdp1 Inhibitors Based on Adamantane Connected with Monoterpene Moieties via Heterocyclic Fragments” (Molecules, 2021) come the findings set out here.

One series relates to HEK293A cells. The series can be described thus: Cytotoxicity on noncancerous cell line HEK293A (EZ4U). It is filed as cell-based, human. The following applies: concentrations up to 30 μM; data not shown. How it is done:
(§1) The cytotoxicity of compounds was investigated using HeLa (cervical cancer), SW837 and HCT-116 (colon cancers) cell lines, and the results are shown in Table 1 and Figure S2 in the Supplementary Materials. […] In general, the HeLa cell line was less sensitive to the inhibitors than the HCT-116 and SW837 cells.
(§2) The human cervical cancer HeLa cells were grown in Iscove’s modified Dulbecco’s medium (IMDM) with 40 μg/mL gentamicin, 50 IU/mL penicillin, 50 μg/mL streptomycin (MP Biomedicals), and 10% of fetal bovine serum (Biolot) in a 5% CO2 atmosphere. Human colon adenocarcinoma HCT-116, rectum adenocarcinoma SW837, and human embryo kidney HEK293A cell lines were cultured in DMEM medium (Invitrogen) supplemented with 10% fetal bovine serum (FBS) (Invitrogen), penicillin (100 units/mL), and streptomycin (100 μg/mL), at 37 °C, 5% CO2 in a humid atmosphere. After the formation of a 30–50% monolayer, the tested compounds were added to the medium. The volume of the added reagents was 1/100 of the total volume of the culture medium, and the amount of DMSO was 1% of the final volume. Control cells were grown in the presence of 1% DMSO. The cell culture was monitored for 3 days.
(§3) The cytotoxicity of the compounds to HeLa and HEK293A cell lines was examined using the EZ4U Cell Proliferation and Cytotoxicity Assay (Biomedica, Austria), according to the manufacturer’s protocols.

A short description of series [1]: Cytotoxicity, MTT test, HCT-116. It counts as cell-based. The settings on record: human, HCT-116 cells; colorectal HCT-116, 72 h MTT. How it is done:
as §1, §2
(§4) The medium was removed, and the dark blue crystals of formazan were dissolved in 100 μL of isopropanol. The absorbance at 570 nm (peak) and 620 nm (baseline) was determined using a microplate reader Multiscan FC (Thermo Fisher Scientific Corporation). All concentrations were performed in triplicate. The values are given as mean ± standard deviation (S.D.) values, and all measurements were repeated three times.

In another series the test system is HeLa cells. Put plainly: Sensitizing of HeLa cells to topotecan by Tdp1 inhibitors. It is filed as cell-based, human. The following applies: for combination index (CI) with topotecan: HeLa, different concentrations of topotecan, CompuSyn; for HeLa CC50 of topotecan with Tdp1 inhibitor: human, 3 days, 5 µM. How it is done:
(§5) The potential for sensitizing the cancer cell lines to topotecan using the Tdp1 inhibitors was investigated using the MTT assay. Neutralizing the enzymatic activity of Tdp1 by blocking access to its catalytic site using a small molecule should sensitize the cytotoxic potential of topotecan, since the complex of Top1 with DNA cannot be unraveled. […] Nontoxic concentrations of the adamantane derivatives (5 μM) were used for the HeLa cell line; the dose response for topotecan was measured and the corresponding CC50 values were derived, and the results are shown in Figure 4 for 20c and in Table 2 for all the derivatives.
(§6) For HeLa cells, increased cytotoxicity was seen when the adamantanes and topotecan were combined. […] The combination index (CI) for different concentrations of topotecan and 20c at 5 μM was in the range 0.49–0.82, and at 10 μM of 20c, it was 0.23–0.78. This indicates a synergistic effect of topotecan and 20c. The CI values were calculated with the CompuSyn version 1.0 software. For the HCT-116 cells, the synergistic effects of the compounds were different than for the HeLa cells. […] The CI plot at a different fraction affected (Fa) was determined for topotecan (5, 15, 150, 500 and 1500 nM) and 20g (1, 3, 10, 20 μM). The CI values for most of the combinations correspond to a synergistic effect (CI < 1, see Figure S3 in the Supplementary Materials).
as §2, §3

The next series deals with HCT-116 cells. The series can be described thus: Sensitizing of HCT-116 cells to topotecan by Tdp1 inhibitors. It is filed as cell-based, human. The following applies: for HCT116 CC50 of topotecan with Tdp1 inhibitor: human, 72 h. The procedure:
as §5, §6, §2, §4

Series [2] in a line: Cytotoxicity, MTT test, SW837. It is filed as cell-based. The settings on record: human, SW837 cells; colorectal SW837, 72 h MTT. The procedure:
as §1, §2, §4
On the technique in general: Tetrazolium assays rely on reduction of a dye to a coloured formazan, in cell work by metabolically active cells.

Series [3] is described as follows: Cytotoxicity, EZ4U Cell Proliferation and Cytotoxicity Assay, HeLa. The following applies: human, HeLa cells, cervical cancer HeLa. It counts as cell-based. The procedure:
as §1, §2, §3

For a further series, the target named is Tdp1 (Homo sapiens, UniProt Q9NUW8). Put plainly: Tdp1 cleavage activity, fluorophore quencher-coupled DNA-biosensor, real-time. It counts as biochemical. On the set-up: inferred from the pET 16B vector and Ni-chelating resin purification; made in house. The following applies: recombinant Tdp1 1.5 nM, 50 nM biosensor; read-out: IC50 (Tdp1 activity inhibition at 50%). The procedure:
The recombinant Tdp1 was purified to homogeneity by chromatography on Ni-chelating resin and phosphocellulose P11 as described, using plasmid pET 16B-Tdp1, kindly provided by Dr. K.W. Caldecott (University of Sussex, United Kingdom). Tdp1 activity was detected as described in the work. Briefly, we measured the fluorescence intensity after quencher removal from a fluorophore quencher–coupled DNA oligonucleotide catalyzed by Tdp1. The reaction was carried out at different concentrations of inhibitors. The control samples contained 1% DMSO. The reaction mixtures contained Tdp1 buffer (50 mM Tris-HCl pH 8.0, 50 mM NaCl, and 7 mM β-mercaptoethanol), 50 nM biosensor, and an inhibitor being tested. The reaction was started by the addition of purified Tdp1 (1.5 nM). The biosensor (5′-[FAM] AAC GTC AGGGTC TTC C [BHQ]-3′) was synthesized in the Laboratory of Biomedical Chemistry at the Institute of Chemical Biology and Fundamental Medicine (Novosibirsk, Russia).
The reactions were incubated on a POLARstar OPTIMA fluorimeter (BMG LAB-TECH, GmbH) to measure fluorescence every 55 s (ex. 485 nm/em. 520 nm) during the linear phase (here, data are from minute 0 to minute 8). The values of IC50 were determined using a six-point concentration response curve in a minimum of three independent experiments, and were calculated using MARS Data Analysis 2.0 (BMG LABTECH).

Chain of Tdp1 (Q9NUW8 whole entry): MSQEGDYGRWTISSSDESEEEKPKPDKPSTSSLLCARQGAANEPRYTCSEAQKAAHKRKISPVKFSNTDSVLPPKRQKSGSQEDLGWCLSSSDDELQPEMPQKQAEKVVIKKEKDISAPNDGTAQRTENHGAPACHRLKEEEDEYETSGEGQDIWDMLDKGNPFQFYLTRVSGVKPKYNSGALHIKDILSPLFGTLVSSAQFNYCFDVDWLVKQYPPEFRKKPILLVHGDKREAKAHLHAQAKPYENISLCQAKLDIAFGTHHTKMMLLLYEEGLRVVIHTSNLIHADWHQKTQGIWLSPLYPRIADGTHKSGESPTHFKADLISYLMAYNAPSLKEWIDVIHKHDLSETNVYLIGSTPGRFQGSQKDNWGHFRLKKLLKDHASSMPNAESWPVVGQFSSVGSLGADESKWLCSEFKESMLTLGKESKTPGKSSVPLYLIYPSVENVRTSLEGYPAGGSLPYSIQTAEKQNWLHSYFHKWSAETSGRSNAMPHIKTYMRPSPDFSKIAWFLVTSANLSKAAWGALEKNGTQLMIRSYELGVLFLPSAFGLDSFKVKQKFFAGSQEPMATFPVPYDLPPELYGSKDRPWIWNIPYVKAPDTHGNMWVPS

The term CC50 denotes the concentration at which the toxic effect on the cells reaches its halfway point. In general, IC50 refers to the concentration that inhibits the measured activity by half. For the molecule `CC(C)=CCC/C(C)=C/CSc1n[nH]c(C23CC4CC(CC(C4)C2)C3)n1` [20c, 5-(Adamantan-1-yl)-3-(((E)-3,7-dimethylocta-2,6-dien-1-yl)thio)-1H-1,2,4-triazole], the “effect on cell viability, HEK293A” value in the series on HEK293A cells is “no effect on cell viability”. In addition, the CC50 at 72 h in series [1] was determined as 16 ± 7 µM; in series [2], 41 ± 6 µM. In addition, the “potentiation of the cytotoxic potency of topotecan” value in the series on HeLa cells stood at 3 ×. For the same molecule, the “combination index (CI) with topotecan” value in the series with HeLa cells (inhibitor at 5 μM) is 0.49–0.82; with HeLa cells (inhibitor at 10 μM), 0.23–0.78. The “HeLa CC50 of topotecan with Tdp1 inhibitor” value with HeLa cells was determined as 1.9 µM. Moreover, the “HCT116 CC50 of topotecan with Tdp1 inhibitor” value with HCT-116 cells (15 µM) is given as 460.0 (15) nM. In addition, in series [3], the CC50 at 3 days was found to be 64 ± 6 µM. At Tdp1, the IC50 amounted to 5.3 ± 1.7 µM.
For `CC1(C)[C@H]2CC=C(CCSc3n[nH]c(C45CC6CC(CC(C6)C4)C5)n3)[C@@H]1C2` [20g, 5-(Adamantan-1-yl)-3-((2-((1R,5S)-6,6-dimethylbicyclo[3.1.1]hept-2-en-2-yl)ethyl)thio)-1H-1,2,4-triazole], in the series with HEK293A cells, the “effect on cell viability, HEK293A” value is given as “no effect on cell viability”. Moreover, the CC50 at 72 h in series [1] was 34 ± 6 µM; in series [2], 40 ± 4 µM. For the same molecule, the “HeLa CC50 of topotecan with Tdp1 inhibitor” value with HeLa cells was 2.6 µM. Besides, the “combination index (CI) with topotecan” value with HCT-116 cells (HCT-116, topotecan 5-1500 nM, inhibitor 1, 3, 10, 20 μM, most of the combinations) is less than 1. Further, the “HCT116 CC50 of topotecan with Tdp1 inhibitor” value in the series with HCT-116 cells (20 µM) is listed as 235.8 (20) nM. In series [3], it took 74 ± 17 µM to reach half-maximal cytotoxicity (CC50 at 3 days). Also, the concentration for half-maximal inhibition (IC50) on Tdp1 came to 0.57 ± 0.14 µM.
